Reference: US20220347167A1, “A NEW TREATMENT FOR MEIBOMIAN GLAND DYSFUNCTION” (The Schepens Eye Research Institute, Inc., priority 2019, published 2022)

Experiments:
[1] = system: IHMGECs; assay: HPTLC analysis of nonpolar lipids and phospholipids in IHMGEC lipid extracts; format: cell-based, human; conditions: Roxa, 4 days
Description: Authenticated IHMGECs were grown and passaged in keratinocyte serum-free medium (KSFM) with 5 ng/mL epidermal growth factor (EGF) and 50 μg/mL bovine pituitary extract (BPE) (Thermo Fisher Scientific, Waltham, Mass.) under 21% O2 (normoxia) [Liu et al. (2010) Investigative ophthalmology & visual science 51:3993-4005; McDermott et al. (2018) Current eye research 43:1097-1101; Liu et al. (2013) Investigative ophthalmology & visual science 54:2541-2550]. Upon reaching 60% to 70% confluence, culture media were replaced by a 1:1 mixture of Dulbecco's modified Eagle's medium and Ham's F12 (DMEM/F12, Corning Life Sciences, Tewksbury, Mass.), supplemented with 10% fetal bovine serum (FBS, Atlanta Biologicals, Flowery Branch, Ga.) [Sullivan et al. (2014) Investigative ophthalmology & visual science 55:3866-3877; Liu et al. (2014) JAMA ophthalmology 132:226-228]. Cells were cultured for 4-10 days under 21% O2 (normoxic) or 1% O2 (hypoxic) conditions. Culture plates of cells in the hypoxic condition were incubated inside hypoxia chambers filled with a premade 1% O2, 5% CO2 and 94% N2 gas mixture (Linde Gas North America, Hammond, Ind.), according to published protocols in Liu et al. (2019) The ocular surface 17(2):310-317 and Wright and Shay (2006) Nat Protoc 1:2088-2090. Following cell medium changes, the chambers were re-flushed with the gas mixture before returning to the incubator. Cells were cultured in the presence or absence of 50 μM Roxa (Selleck Chemical, Houston, Tex.) under normoxic or hypoxic conditions for 4 to 10 days. Cell culture experiments (n=3 wells/treatment) were repeated at least 3 times.
Cells seeded in 10-cm polystyrene-coated dishes (Corning, Falcon) were extracted with chloroform and methanol, and the lipid extractions were separated by high-performance thin-layer chromatography (HPTLC), as previously described in Liu et al. Toxicology 2014; 320:1-5, Liu and Ding (2014) Investigative ophthalmology & visual science 55:5596-5601, and Liu et al. (2015) Cornea 34:342-346. In brief, for nonpolar lipid analysis, the plate (Silica Gel 60, Merck, Darmstadt, Germany) was developed in hexane: diethyl ether: acetic acid (80:20:1.5, vol/vol/vol) alone. For phospholipids analysis, the plate was developed sequentially in chloroform:ethanol:water (60:30:5 vol/vol/vol) and then hexane:diethyl ether:acetic acid (80:20:1.5, vol/vol/vol) [Liu and Ding (2014) Investigative ophthalmology & visual science 55:5596-5601]. Bands were visualized according to published protocols [Ponec et al. (1988) Journal of lipid research 29:949-961], and the intensities of bands were quantified using ImageJ [Liu and Ding (2014) Investigative ophthalmology & visual science 55:5596-5601].
To examine whether 1% O2 exposure and/or Roxa administration stimulate the accumulation of neutral lipids within IHMGECs [Liu et al. (2019) Ocul Surf 17:310-317], IHMGECs were treated with Roxa ([…]) in either normoxic (21% O2) or hypoxic (1% O2) environments conditions for 4 days.

[2] = system: IHMGECs; assay: Intracellular pH in IHMGECs; format: cell-based, human; conditions: exposure to Roxa, in vitro
Description: It was recently discovered that a hypoxic environment is beneficial for meibomian gland (MG) function. The mechanism(s) underlying this effect was unknown, but may be due to an increase in the levels of hypoxia-inducible factor 1α (HIF1a). In other tissues, HIF1α is the primary regulator of cellular responses to hypoxia and HIF1α expression can be induced by multiple stimuli, including hypoxia and low oxygen mimetic agents. In the current studies described in this Example, human eyelid tissues were stained for HIF1α. Immortalized human MG epithelial cells (IHMGECs) were cultured for varying time periods under normoxic (21% O2) or hypoxic (1% O2) conditions, in the presence or absence of the low oxygen mimetic agent Roxadustat (Roxa). IHMGECs were then processed for the analysis of cell number, HIF1α expression, lipid-containing vesicles, neutral and polar lipid content, DNase II activity and intracellular pH. […] The data support that the beneficial effect of hypoxia on the MG is mediated through an increased expression of HIF1α.

[3] = system: apolipoprotein E-deficient (ApoE −/−) mice; assay: Serum cholesterol in ApoE −/− mice (cholesterol fluorometric assay kit); format: in vivo, mouse; conditions: Roxa 10 mg/kg subcutaneous, three times per week for 12 weeks, vs vehicle, p<0.05
Description: (§1) The whole blood samples of mice were collected by cardiac puncture after sacrificing. The blood samples were allowed to clot by leaving it undisturbed at room temperature for 15 minutes. The clot was removed by centrifuging at 1,000-2,000×g for 10 minutes in a refrigerated centrifuge. The resulting supernatant was designated serum. Then the cholesterol level in the serum was evaluated by using a commercially available cholesterol fluorometric assay kit (#10007640, Cayman Chemical, Mich.). The weight of each mice was measured before and after the experiment. The percentage of weight gain was compared between the Roxa-treated mice and the vehicle-treated mice.
(§2) At the beginning of the study, the 16 ApoE−/− mice and 4 wild-type (WT) C57BL/6J mice, 12 weeks of age, were measured for their weight, tear volume, corneal fluorescein staining and tear breakup time (TBUT). The ApoE −/− mice were randomly divide into 2 groups (n=8 mice/group) and treated with vehicle control (2% DMSO in sterile saline, subcutaneous injection) or Roxa (10 mg/kg, subcutaneous injection). The injections were administrated three times per week (on Monday, Wednesday, and Friday mornings) for 12 weeks. […] At the end of the study, the weight, tear volume, corneal fluorescein staining and tear breakup time (TBUT) were measured again. […]

[4] = Percentage of weight gain in ApoE −/− mice; format: in vivo, mouse; conditions: Roxa 10 mg/kg subcutaneous, three times per week for 12 weeks, vs vehicle, p<0.05
Description: as §1, §2

[5] = system: MG cells; assay: Staining of dissected mouse eyelids for MG cell differentiation markers; format: in vivo; conditions: eyelids of Roxa-treated ApoE −/− mice
Description: The mice eyelids were collected and dissected after sacrificing. The dissected samples were stained with different antibodies and dyes for lipids. For example, the dissected mice lid samples were stained with Oil Red O and LipidTox™ (Invitrogen) for evaluation of lipid accumulation. The sections were stained for pimonidazole, DNase II, HIF1α, PPARγ, Desmoglein and Desmocollin for the evaluation of cell differentiation and maturation. […] These markers include intracellular lipid accumulation, as well as expression of peroxisome proliferator-activated receptor gamma (PPAR-γ), Desmoglein and Desmocollin in MG cells.

[6] = under either normoxic or hypoxic conditions, vs controls

## Cc1nc(C(=O)NCC(=O)O)c(O)c2ccc(Oc3ccccc3)cc12 [Roxa, roxadustat]
[1]
  amount of cholesterol esters in IHMGECs: Neither Roxa nor 1% O2 had any effect
  amount of lysophosphatidylcholines in IHMGECs: Neither Roxa nor 1% O2 had any effect
  amount of phosphatidic acid in IHMGECs: Neither Roxa nor 1% O2 had any effect
  amount of phosphatidylcholine in IHMGECs: Neither Roxa nor 1% O2 had any effect
  amount of phosphatidylethanolamine in IHMGECs: Neither Roxa nor 1% O2 had any effect
  amount of phosphatidylinositol in IHMGECs: Neither Roxa nor 1% O2 had any effect
  amount of wax esters in IHMGECs: Neither Roxa nor 1% O2 had any effect
  expression of unidentified polar lipids in IHMGECs (HPTLC): appeared to enhance
[1]; [6]
  levels of free fatty acids (FFAs) in IHMGECs (HPTLC): increased
  levels of triglycerides in IHMGECs (HPTLC): increased
[2]
  pH in IHMGECs: decreases
[3]
  serum cholesterol level: significantly reduced
[4]
  percentage of weight gain: significantly reduced
[5]
  expression of Desmocollin in MG cells: promoted expression
  expression of Desmoglein in MG cells: promoted expression
  expression of peroxisome proliferator-activated receptor gamma (PPAR-γ) in MG cells: promoted expression
  intracellular lipid accumulation in MG cells (differentiation marker): promoted expression
